From publication PMC3684613 (PLoS ONE, 2013)
Where two headings read alike, the source gives them in different places.

Columns and labels:
P. falciparum 3D7 [1] = test system: P. falciparum 3D7; parameters: method as in ChEMBL-NTD; conditions: ref ChEMBL-NTD, cited from earlier work
P. falciparum 3D7 [2] = experiment: DAPI stain fluorescent high content imaging assay, P. falciparum 3D7 (confirmatory screen, Avery); conditions: Plasmodium falciparum; for EC50: 3D7, read-out: EC50_nM; for inhibition of growth at 2 µM: 3D7, read-out: percent_inh @ 2 uM; for inhibition of growth at 5 µM: 3D7, read-out: percent_inh @ 5 uM
[3] = values follow the order of the source (GNF; GSK; StJude)
[4] = original screening data, source (GSK, GNF, StJude), several values separated by ';' in order of sources

SMILES | EC50 (P. falciparum 3D7 [2]) [nM] | EC50 (P. falciparum 3D7 [1]; source GNF (GNF-Pf id)) [nM] | inhibition of growth at 5 µM (P. falciparum 3D7 [2]) [%] | also measured
c1ccc(CNc2nc(Nc3ccccc3)nc3ccccc23)cc1 [MMV006169] | 776 | – | – | EC50 (P. falciparum 3D7 [1]; [3]): 158 nM; inhibition of growth at 2 µM (P. falciparum 3D7 [2]): 95%
CN1CCN(c2ccc(Nc3c4ccccc4nc4ccccc34)cc2)CC1 [MMV006172] | 142 | 56.7 | 97 | EC50 (P. falciparum 3D7 [1]; source GSK (TCMDC id)): 645 nM
O=C(NCc1ccco1)C1CCN(S(=O)(=O)c2ccc(Cl)cc2)CC1 [MMV006188] | 890 | – | 94 | EC50 (P. falciparum 3D7 [1]; source GNF): 514 nM
Cc1cc(NCCN2CCCCC2)c2ccc3ccccc3c2n1 [MMV006203] | 300 | 44.1 | 99 | –
CCOC(=O)c1cnc2c(C)cccc2c1Nc1ccc(C(C)=O)cc1 [MMV006250] | 314 | – | 94 | EC50 (P. falciparum 3D7 [1]; source GNF (GNF-Pf ids)): 119 nM
CCc1c(C)c(=N)c2ccccc2n1C [MMV006278] | 378 | 701 | 76 | –
CCN(CC)CCNc1ccnc2cc3ccccc3cc12 [MMV006303] | 391 | – | – | EC50 (P. falciparum 3D7 [1]; [3]): 28.6 nM
CN(C)c1ccc(C=Cc2nc(=O)c3ccccc3o2)cc1 [MMV006309] | 51.5 | – | 96 | EC50 (P. falciparum 3D7 [1]; source GSK (TCMDC id)): 44.6 nM
Cc1cc(Nc2cccc(F)c2)nc(NCc2ccccc2)n1 [MMV006319] | 662 | – | – | EC50 (P. falciparum 3D7 [1]; [4]): 72.2 nM; inhibition of growth at 2 µM (P. falciparum 3D7 [2]): 97%
O=C1c2ccccc2C2=Nc3ccccc3SC(c3cccc(F)c3)C12 (centres unmarked) [MMV006389] | 414 | – | 94 | EC50 (P. falciparum 3D7 [1]; source GNF (GNF-Pf ids)): 86.7 nM
COc1cc(OC)c(N(C)C(=O)c2cc3c(s2)-c2ccccc2S(=O)(=O)C3)cc1Cl [MMV006427] | 78.2 | 113 | 100 | –
Cc1cc(NC(=O)C2c3ccccc3C(=O)N(CC(C)C)C2c2cccs2)no1 (centres unmarked) [MMV006429] | 32.8 | 85.6 | 100 | –
CCCN(CCC)CC(O)COc1ccccc1C(=O)Nc1ccccc1 (centres unmarked) [MMV006455] | 196 | 365 | 98 | EC50 (P. falciparum 3D7 [1]; source GSK (TCMDC id)): 799 nM
CCOC(=O)c1ccc2nc(-c3ccccc3)cc(O)c2c1 [MMV006457] | 118 | 549 | 96 | –
c1ccc2c(NCCc3c[nH]c4ccccc34)c3ccccc3nc2c1 [MMV006513] | 304 | – | 97 | EC50 (P. falciparum 3D7 [1]; source GNF (GNF-Pf ids)): 86 nM
CCOc1ccc2nc(C)cc(Nc3ccc(Br)cc3)c2c1 [MMV006522] | 480 | – | – | EC50 (P. falciparum 3D7 [1]; [3]): 114 nM; inhibition of growth at 2 µM (P. falciparum 3D7 [2]): 96%
CCN(CC)CCNc1ncnc2c1[nH]c1ccc(Br)cc12 [MMV006545] | 707 | – | – | EC50 (P. falciparum 3D7 [1]; [4]): 288 nM
Cc1cc(C)c2c(c1)OCN(Cc1ccccc1Cl)C2 [MMV006558] | 268 | 192 | 98 | –
Clc1ccc2[nH]c3c(NCCCN4CCOCC4)ncnc3c2c1 [MMV006587] | 700 | – | – | EC50 (P. falciparum 3D7 [1]; [4]): 109 nM
CCOC(=O)C1=CN(C)C=C(C(=O)OCC)C1c1cc(Br)c(OCC)c(OC)c1 [MMV006656] | 518 | – | 97 | EC50 (P. falciparum 3D7 [1]; [3]): 913 nM
CN(C)CCNc1cc(-c2ccccc2)nc2ccccc12 [MMV006704] | 4000 | – | – | EC50 (P. falciparum 3D7 [1]; [4]): 692 nM; inhibition of growth at 2 µM (P. falciparum 3D7 [2]): 92%
Cc1cc(N2CCN(C3CCCC3)CC2)n2c(nc3ccccc32)c1C#N [MMV006706] | 683 | – | – | EC50 (P. falciparum 3D7 [1]; [4]): 743 nM
Cc1cc(=O)oc2c1ccc1oc(C(=O)c3ccccc3)c(C)c12 [MMV006753] | – | – | 94 | EC50 (P. falciparum 3D7 [1]; source GNF (GNF-Pf ids)): 441 nM
CCOc1c(Br)cc(C2C(C(=O)OC)=CN(C)C=C2C(=O)OC)cc1OC [MMV006764] | 512 | – | 96 | EC50 (P. falciparum 3D7 [1]; source GNF (GNF-Pf ids)): 292 nM
CC(C)CCNCC(O)Cn1c2ccccc2c2ccccc21 (centres unmarked) [MMV006787] | 473 | – | 97 | EC50 (P. falciparum 3D7 [1]; source GNF (GNF-Pf ids)): 201 nM
CCCCc1c(C)nc2c(OC)cccc2c1O [MMV006820] | 4000 | – | – | EC50 (P. falciparum 3D7 [1]; [4]): 1690 nM; inhibition of growth at 2 µM (P. falciparum 3D7 [2]): 92%
COc1ccc(Nc2cc(C)nc(NCc3ccccc3)n2)cc1 [MMV006825] | 467 | – | – | EC50 (P. falciparum 3D7 [1]; [3]): 151 nM
c1ccc2cc3c(Nc4ccc(N5CCOCC5)cc4)ccnc3cc2c1 [MMV006861] | 251 | 672 | 97 | –
CCOC(=O)c1cnc2ccc(Cl)cc2c1NCCCN(C)C [MMV006882] | 1190 | – | 98 | EC50 (P. falciparum 3D7 [1]; source GNF (GNF-Pf ids)): 826 nM
